# From ChEMBL document CHEMBL1201862, “PubChem BioAssay data set” (2004)
# Calls of active or inactive are those of the source.
# How the values were obtained:
# [1] = biological target: T1, Zinc finger protein mex-5 (Caenorhabditis elegans, UniProt Q9XUB2); assay: MEX-5/TCR-2 RNA interaction inhibitors, dose response, biochemical, C. elegans, fluorescence polarization (AID 1960)
# T1 sequence (Q9XUB2 whole entry): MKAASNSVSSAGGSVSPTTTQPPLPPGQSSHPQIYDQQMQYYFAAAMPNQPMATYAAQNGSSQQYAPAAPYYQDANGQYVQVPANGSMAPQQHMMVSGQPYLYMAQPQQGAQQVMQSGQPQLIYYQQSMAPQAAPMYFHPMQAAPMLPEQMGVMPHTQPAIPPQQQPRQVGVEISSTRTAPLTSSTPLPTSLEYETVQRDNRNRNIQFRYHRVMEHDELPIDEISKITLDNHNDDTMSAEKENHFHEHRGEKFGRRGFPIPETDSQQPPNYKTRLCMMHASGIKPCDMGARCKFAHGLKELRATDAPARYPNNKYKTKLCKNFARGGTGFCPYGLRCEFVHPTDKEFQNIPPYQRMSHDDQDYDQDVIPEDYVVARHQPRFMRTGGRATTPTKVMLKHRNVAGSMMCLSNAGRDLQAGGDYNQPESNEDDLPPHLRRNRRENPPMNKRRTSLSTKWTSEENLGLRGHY
# [2] = biological target: T2, RNA-binding protein pos-1 (Caenorhabditis elegans, UniProt G5EF15); assay: inhibitors of POS-1/mex-3 RNA binding, dose response, biochemical, fluorescence polarization (AID 1964);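 also: purified POS-1 fused to maltose binding protein made in E. coli; potency of compounds blocking POS-1 binding to fluorescent RNA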
# T2 sequence (G5EF15 whole entry): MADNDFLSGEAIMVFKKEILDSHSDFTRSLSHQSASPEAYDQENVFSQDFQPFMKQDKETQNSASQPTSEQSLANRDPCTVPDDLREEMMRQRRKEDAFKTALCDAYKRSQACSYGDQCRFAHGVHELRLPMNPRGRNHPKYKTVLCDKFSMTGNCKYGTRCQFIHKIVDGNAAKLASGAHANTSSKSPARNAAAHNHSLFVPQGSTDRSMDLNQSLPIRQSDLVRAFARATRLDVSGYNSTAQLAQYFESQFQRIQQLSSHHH
# [3] = biological target: Cytochrome P450 2D6 (Homo sapiens, UniProt P10635);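 also: CYP2D6 member of a cytochrome P450 panel assay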
# Cytochrome P450 2D6, sequence (P10635 whole entry): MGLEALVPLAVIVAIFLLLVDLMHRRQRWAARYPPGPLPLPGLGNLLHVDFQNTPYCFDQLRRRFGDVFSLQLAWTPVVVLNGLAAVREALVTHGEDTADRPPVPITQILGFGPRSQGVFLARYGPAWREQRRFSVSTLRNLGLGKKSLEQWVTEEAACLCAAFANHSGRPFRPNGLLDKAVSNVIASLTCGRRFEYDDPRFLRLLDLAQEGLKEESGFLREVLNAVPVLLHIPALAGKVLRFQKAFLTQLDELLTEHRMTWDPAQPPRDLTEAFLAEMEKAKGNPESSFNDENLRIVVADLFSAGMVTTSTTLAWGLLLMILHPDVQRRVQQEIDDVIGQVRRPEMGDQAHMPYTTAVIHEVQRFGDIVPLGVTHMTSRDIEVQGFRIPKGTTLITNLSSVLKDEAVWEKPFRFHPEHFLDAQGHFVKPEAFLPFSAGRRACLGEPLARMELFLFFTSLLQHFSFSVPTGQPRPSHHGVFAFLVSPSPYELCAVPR
# [4] = biological target: T3, Protein skinhead-1 (Caenorhabditis elegans, UniProt P34707); assay type: functional
# T3 sequence (P34707 whole entry): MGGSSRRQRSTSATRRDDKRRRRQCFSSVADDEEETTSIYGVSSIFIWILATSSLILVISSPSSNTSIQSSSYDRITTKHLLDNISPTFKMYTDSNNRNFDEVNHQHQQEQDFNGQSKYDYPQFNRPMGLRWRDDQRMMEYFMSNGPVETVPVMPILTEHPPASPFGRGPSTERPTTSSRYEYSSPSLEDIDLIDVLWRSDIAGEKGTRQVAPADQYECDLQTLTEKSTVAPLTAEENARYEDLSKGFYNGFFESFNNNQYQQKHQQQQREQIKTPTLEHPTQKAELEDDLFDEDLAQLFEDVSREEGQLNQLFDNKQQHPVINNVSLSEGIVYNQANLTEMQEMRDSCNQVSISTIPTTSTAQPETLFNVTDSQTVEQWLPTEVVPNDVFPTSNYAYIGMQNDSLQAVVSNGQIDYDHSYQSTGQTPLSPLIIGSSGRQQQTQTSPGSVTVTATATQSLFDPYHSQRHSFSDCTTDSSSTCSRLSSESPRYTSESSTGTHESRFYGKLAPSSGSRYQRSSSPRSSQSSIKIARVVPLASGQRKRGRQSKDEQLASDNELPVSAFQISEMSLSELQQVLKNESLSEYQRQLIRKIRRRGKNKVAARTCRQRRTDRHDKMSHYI
# [5] = microbe, parasite or virus in culture; assay type: functional; conditions: Mycobacterium tuberculosis
# [6] = biological target: T4, Polyadenylate-binding protein 1 (Homo sapiens, UniProt P11940); assay: PABP1 MLLE–PAM2 interaction inhibitors, dose response, miRNA deadenylation inhibitor project, biochemical, fluorescence polarization, Cy5-PAM2 peptide, secondary (AID 602260); assay type: functional; conditions: read-out: IC50_Mean
# T4 sequence (P11940 whole entry): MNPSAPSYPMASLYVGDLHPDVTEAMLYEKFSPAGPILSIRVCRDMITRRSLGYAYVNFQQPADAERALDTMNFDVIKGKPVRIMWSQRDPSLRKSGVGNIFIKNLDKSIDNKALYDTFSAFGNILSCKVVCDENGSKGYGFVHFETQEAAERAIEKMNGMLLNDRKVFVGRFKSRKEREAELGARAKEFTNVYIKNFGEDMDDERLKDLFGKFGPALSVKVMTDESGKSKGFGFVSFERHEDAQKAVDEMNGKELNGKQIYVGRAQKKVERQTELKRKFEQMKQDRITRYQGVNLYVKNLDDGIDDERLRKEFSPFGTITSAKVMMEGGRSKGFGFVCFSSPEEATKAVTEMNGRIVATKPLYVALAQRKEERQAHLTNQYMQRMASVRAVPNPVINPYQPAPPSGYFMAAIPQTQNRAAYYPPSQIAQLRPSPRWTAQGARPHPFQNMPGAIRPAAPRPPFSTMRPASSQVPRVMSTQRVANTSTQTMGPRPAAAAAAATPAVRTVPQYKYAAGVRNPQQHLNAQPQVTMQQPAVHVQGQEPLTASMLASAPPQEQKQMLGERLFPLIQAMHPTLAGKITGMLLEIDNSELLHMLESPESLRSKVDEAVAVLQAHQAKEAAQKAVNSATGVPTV
# [7] = biological target: T4, Polyadenylate-binding protein 1; assay: PABP1 MLLE–PAM2 binding inhibitor potency, dose response, biochemical, fluorescence polarization, FITC-PAM2 peptide (AID 602259); assay type: functional; conditions: read-out: IC50_Mean
# [8] = tested on: INS1; assay: beta cell apoptosis inhibitors, cytokine rescue, dose response, luminescence, retest (AID 449756); assay type: functional, cell-based; conditions: Rattus norvegicus;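 also: cell death triggered by IL-1 beta plus TNF-alpha plus IFN-gamma mixture; protective hits raise ATP signal compared with cytokine alone wells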
# [9] = Luminescence Cell-Based Dose Retest to Confirm Inhibitors of Cancer Stem Cells. [Related pubchem assays (depositor defined):AID2717, AID2721]; assay type: functional; conditions: Homo sapiens
# [10] = biological target: Cytochrome P450 2C9 (Homo sapiens, UniProt P11712)
# Cytochrome P450 2C9, sequence (P11712 whole entry): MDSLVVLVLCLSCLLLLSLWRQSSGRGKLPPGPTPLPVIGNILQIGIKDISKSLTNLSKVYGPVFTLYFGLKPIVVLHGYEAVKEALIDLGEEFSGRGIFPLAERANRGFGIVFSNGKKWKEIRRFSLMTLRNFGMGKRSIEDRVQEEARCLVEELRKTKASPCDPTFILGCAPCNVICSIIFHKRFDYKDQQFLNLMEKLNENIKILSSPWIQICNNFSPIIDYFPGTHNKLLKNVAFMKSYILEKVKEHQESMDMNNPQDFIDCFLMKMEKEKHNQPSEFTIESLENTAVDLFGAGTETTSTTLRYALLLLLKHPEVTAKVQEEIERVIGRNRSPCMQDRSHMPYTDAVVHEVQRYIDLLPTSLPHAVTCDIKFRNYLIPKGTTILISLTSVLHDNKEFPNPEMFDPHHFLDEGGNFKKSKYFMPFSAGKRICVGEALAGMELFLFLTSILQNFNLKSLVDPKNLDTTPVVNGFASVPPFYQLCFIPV
# [11] = biological target: T5, Cytochrome P450 1A2 (Homo sapiens, UniProt P05177);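 also: PubChem cytochrome P450 panel assay, CYP1A2 panel member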
# T5 sequence (P05177 whole entry): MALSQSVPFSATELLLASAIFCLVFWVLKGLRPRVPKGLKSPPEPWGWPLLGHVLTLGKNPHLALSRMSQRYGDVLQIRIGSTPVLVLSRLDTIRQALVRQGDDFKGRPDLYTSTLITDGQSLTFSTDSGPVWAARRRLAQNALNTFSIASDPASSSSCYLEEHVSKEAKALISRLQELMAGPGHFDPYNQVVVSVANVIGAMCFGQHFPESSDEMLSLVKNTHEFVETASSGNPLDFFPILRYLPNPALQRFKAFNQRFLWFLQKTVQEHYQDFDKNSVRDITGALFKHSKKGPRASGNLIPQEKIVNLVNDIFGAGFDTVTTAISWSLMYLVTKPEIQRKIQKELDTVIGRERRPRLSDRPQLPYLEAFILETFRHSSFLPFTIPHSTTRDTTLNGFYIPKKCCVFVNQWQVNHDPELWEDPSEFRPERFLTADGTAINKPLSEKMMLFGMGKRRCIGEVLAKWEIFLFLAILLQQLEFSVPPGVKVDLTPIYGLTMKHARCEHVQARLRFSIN
# [12] = biological target: Cytochrome P450 2C19 (Homo sapiens, UniProt P33261); assay: Cytochrome panel assay with activity outcomes. Panel member name: p450-cyp2c19 Compounds with AC50 equal or less than 10 uM are considered active; assay type: functional
# Cytochrome P450 2C19, sequence (P33261 whole entry): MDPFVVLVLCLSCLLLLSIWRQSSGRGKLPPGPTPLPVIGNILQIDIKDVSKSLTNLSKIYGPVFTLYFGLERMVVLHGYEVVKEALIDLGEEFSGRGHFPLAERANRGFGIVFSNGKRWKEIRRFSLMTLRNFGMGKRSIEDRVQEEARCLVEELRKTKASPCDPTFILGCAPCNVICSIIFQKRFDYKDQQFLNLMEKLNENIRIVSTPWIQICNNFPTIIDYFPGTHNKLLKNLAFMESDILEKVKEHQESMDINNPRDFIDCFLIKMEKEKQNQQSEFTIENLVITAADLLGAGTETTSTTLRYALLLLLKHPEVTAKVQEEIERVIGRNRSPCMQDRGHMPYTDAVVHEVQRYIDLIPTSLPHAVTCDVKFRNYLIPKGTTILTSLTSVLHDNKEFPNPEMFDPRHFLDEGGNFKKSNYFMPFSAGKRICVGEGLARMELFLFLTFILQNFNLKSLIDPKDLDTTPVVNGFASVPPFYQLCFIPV
# [13] = HEp-2 cell cytotoxicity, dose response, cytotoxicity control for RSV inhibitor project, HTS (AID 2410); assay type: functional; conditions: human respiratory syncytial virus
# [14] = tested on: H4; assay: Luminescence Cell-Based Dose Response HTS to Identify Activators of 5'UTR Stem-Loop Driven Prion Protein mRNA Translation in H4 Neuroglioblastoma Cells. [Related pubchem assays: 1829 (Project Summary), 1814 (Primary HTS)]; assay type: functional; conditions: Homo sapiens
# [15] = Luminescence Cell-Based Dose Response HTS to Identify Activators of Luciferase Translation or Activity in H4 […] Cells. [Related pubchem assays: 1829 (Project Summary), 1814 (Primary HTS)]; assay type: functional
compound,measurement,setting,value
O=C(NNC(=O)c1cnccn1)c1ccc(Cl)cc1,EC50,[1],12.4 µM (active)
same,EC50,[2],95.9 µM (active)
CC[C@@H]1CN2CCc3cc(OC)c(OC)cc3[C@H]2C[C@@H]1C[C@@H]1NCCc2cc(O)c(OC)cc21,AC50,[3],10 µM (inconclusive)
CCn1nnc2sc3c(c2c1=O)CCC(C)C3 (centres undefined),IC50,[4],> 100 µM (inactive)
Cc1nn(-c2ccccc2)c(N)c1C(c1ccc(C(C)C)cc1)c1c(C)nn(-c2ccccc2)c1N,CC50,[5],> 40 µM (active)
O=C(CCN1C(=O)/C(=C\C=C\c2ccccc2)SC1=S)Nc1ccc(C(=O)O)cc1,EC50,[1],38.7 µM (active)
same,EC50,[2],> 300 µM (not active)
O=C(NC(=S)Nc1ccccc1)c1cncc(C#Cc2ccccc2)c1,IC50,[6],> 66 µM (inactive)
same,IC50,[7],> 66 µM (inactive)
CCN(CCO)C[C@H]1CCC[C@H]2CCCC[C@@H]21,AC50,[3],6.31 µM (inconclusive)
O=C1c2ccccc2-c2cc3ccccc3cc21,IC50,[6],> 66 µM (inactive)
same,IC50,[7],> 66 µM (inactive)
CC(C)(C)C1CCc2sc(-c3nnc(CCl)o3)cc2C1 (centres undefined),CC50,[5],21 µM (active)
Cc1cc2cc(CNC(=O)CCC(=O)O)ccc2n1C,IC50,[4],> 100 µM (inactive)
Cc1ccc(C2=NN(S(C)(=O)=O)C(c3ccc4c(c3)OCO4)C2)cc1 (centres undefined),IC50,[4],> 100 µM (inactive)
CN(C)c1ccc(-c2cc(O)c3ncccc3c2)cc1,AC50,[8],5.16 µM (active)
same,AC50,[9],7.11 µM (active)
same,CC50,[5],23.2 µM (active)
CN(C)c1ncc2nc(-c3cccc(C#N)c3)c(=O)n(CCC#N)c2n1,AC50,[3],39.8 µM (inconclusive)
same,AC50,[10],inconclusive
O[C@@H](c1cc(C(F)(F)F)nc2c(Cl)cc(Cl)cc12)[C@@H]1CCCCN1,AC50,[3],3.16 µM (inconclusive)
Fc1ccc(Nc2ncncc2-c2ccccc2C(F)(F)F)cc1,AC50,[3],39.8 µM (inconclusive)
same,AC50,[11],20 µM (inconclusive)
O=C(NC(=S)Nc1ccc2oc(=O)ccc2c1)c1ccco1,IC50,[6],> 66 µM (inactive)
same,IC50,[7],> 66 µM (inactive)
O=C(NCc1ccco1)c1sc2cc(F)ccc2c1Cl,IC50,[4],> 100 µM (inactive)
CCOc1cc(CNCCSc2nnnn2C)cc(Br)c1OCc1ccc(F)cc1,IC50,[4],6.7 µM (active)
N=C(N)Nc1ccc(Cl)cc1,AC50,[3],31.6 µM (inconclusive)
same,AC50,[12],inconclusive
Cc1ccc(S(=O)(=O)CCC(=O)Nc2nc3c(s2)CCCC3)cc1,CC50,[13],32.3 µM (active)
same,AC50,[3],28.2 µM (inconclusive)
same,AC50,[11],15.8 µM (inconclusive)
COCCCN=C(S)N(CCO)Cc1cc2cc3c(cc2nc1O)OCCO3,IC50,[6],> 66 µM (inactive)
same,IC50,[7],> 66 µM (inactive)
CCCNC(=O)COC(=O)C1CCN(S(=O)(=O)c2ccc3c(c2)OCCO3)CC1,IC50,[4],> 100 µM (inactive)
Cc1ccc(NC(=O)/C(C#N)=C/c2ccc(C)s2)c(C)c1,EC50,[1],9.25 µM (active)
same,EC50,[2],64.2 µM (inconclusive)
Cc1ccc2c(c1)C(c1ccc(N3CCOCC3)cc1)=NNC(c1cccs1)=N2,CC50,[5],38.6 µM (active)
Nc1c(NCCC2=CCCCC2)c(=O)[nH]c(=O)n1Cc1ccccc1,EC50,[1],13.9 µM (active)
same,EC50,[2],23.2 µM (active)
CCc1cc(C(=O)c2ccccc2OC)c(N)s1,IC50,[6],> 66 µM (inactive)
same,IC50,[7],> 66 µM (inactive)
O=C(O)c1ccc(Cn2cnc3cccnc32)cc1,IC50,[6],> 66 µM (inactive)
same,IC50,[7],55.8 µM (inactive)
CC(C)Cn1c(N)c(C(=O)CSc2nnnn2C)c(=O)n(C)c1=O,IC50,[4],> 100 µM (inactive)
CN(C)c1ccc(/C=C(\C#N)C(=O)Nc2nc3c(s2)CCN(Cc2ccccc2)C3)cc1,IC50,[4],> 100 µM (inactive)
NS(=O)(=O)c1ccc(NC(S)=NNC(=O)CCC(=O)Nc2ccccc2Cl)cc1,EC50,[1],12.2 µM (active)
same,EC50,[2],13 µM (inconclusive)
O=C(CN1C(=O)S/C(=C\c2ccccc2)C1=O)NCCCn1ccnc1,IC50,[6],> 66 µM (inactive)
same,IC50,[7],> 66 µM (inactive)
COc1ccc(NC(S)=Nc2cccc(Cl)c2)cc1OC,IC50,[6],> 66 µM (inactive)
same,IC50,[7],> 66 µM (inactive)
c1csc(CSc2nc3ccccc3s2)c1,EC50,[14],36.9 µM (active)
same,EC50,[15],1.12 µM (active)
same,IC50,[4],27.5 µM (active)
COc1cccc(C(=O)NCC(=O)NNc2ncnc(N)c2[N+](=O)[O-])c1,EC50,[1],< 0.06 µM (inconclusive)
same,EC50,[2],> 300 µM (inconclusive)
O=C(CSc1nc2cc(Br)c[nH]c-2n1)Nc1ccc2c(c1)OCO2,CC50,[5],> 40 µM (active)
c1ccc(Cn2nnc3c(NCCN4CCOCC4)ncnc32)cc1,IC50,[4],> 100 µM (inactive)
CS(=O)(=O)N1CCC2(CCN(c3ccncc3)CC2)CC1,AC50,[3],25.1 µM (inconclusive)
Cc1oncc1-c1csc(-c2ccccc2Cl)n1,IC50,[4],> 100 µM (inactive)
COC(=O)c1cc(NS(=O)(=O)c2ccc(N3CCCCC3)c([N+](=O)[O-])c2)cc(C(=O)OC)c1,AC50,[3],10 µM (inconclusive)
same,AC50,[11],15.8 µM (inconclusive)
same,AC50,[12]; read-out: AC50,2.51 µM (inconclusive)
Cc1ccc(-c2c(C)nn3c(N4CCOCC4)cc(C)nc23)cc1,IC50,[4],> 100 µM (inactive)
CCc1ccc(OCCCC(=O)Nc2ccc(N3CCCCC3)cc2)cc1,AC50,[3],1.26 µM (inconclusive)
same,AC50,[12]; read-out: AC50,10 µM (inconclusive)
CCOc1ccccc1N=C(S)NNS(=O)(=O)c1c(C)cc(C)cc1C,IC50,[6],> 66 µM (inactive)
same,IC50,[7],> 66 µM (inactive)
